Measured values: patent US20050019931A1, “Nucleic acids encoding antifungal drug targets and methods of use” (Elitra Pharmaceuticals, Inc., priority 2002, published 2005)

Tests used:
[1] = tested on: bar-coded strains bearing heterozygous mutations in HIS3, TUB 1, ALG7, and ERG 11; conditions: mixed population; HIS3, TUB 1, ALG7, ERG 11 respectively; cited from earlier work
[2] = tested on: CaHIS3 (imidazoleglycerol phosphate dehydratase) wild type, heterozygote and GRACE strains; experiment: Target level variation whole cell assay: sensitivity of CaHIS3 strains towards 3-aminotriazole; assay type: cell-based, Candida albicans; conditions: for sensitivity of CaHIS3 GRACE strain minimally expressing CaHIS3 (partial repression, threshold tetracycline): FIG. 6C/6D
Excerpt: The data derived from these experiments clearly indicate that distinct levels of target gene products synthesized within the pathogen could be directly applied in whole cell assay based drug screens to identify novel antifungal compounds active against novel drug targets validated using the GRACE method.
3-AT is a competitive inhibitor of the enzyme encoded by CaHIS3, imidazoleglycerol phosphate dehydratase, and together serve as a model for a drug and drug target respectively. […] The phenotype observed is consistent with that expected in light of the predicted 7.5 fold overexpression of CaHIS3 determined by Northern bolt analysis (see FIG. 5). […] A third CaHIS3 expression level evaluated for differential sensitivity to 3-AT was produced by partial repression of the GRACE CaHIS3 strain using a threshold concentration of tetracycline 0.1% […].
(§1) Moreover, these experiments clearly indicate how distinct levels of target gene products synthesized within the pathogen could be directly applied in whole cell assay based drug screens to identify novel antifungal compounds against those novel drug targets validated using the GRACE method.

C. albicans = experiment: Sensitivity of C. albicans to selection antibiotics (dominant selectable markers); assay type: cell-based, Candida albicans
Excerpt: Several art-known methods are available to create a heterozygote mutant. In less preferred embodiments, auxotrophic markers, such as but not limited to CaURA3, CaHIS3, CaLEU2, or CaTRP1, could be used for gene disruption if desired. However, the preferred method of heterozygote construction in diploid fungi employs a genetically modified dominant selectable marker. C. albicans is sensitive to the nucleoside-like antibiotic streptothricin at a concentration of 200 micrograms per milliliter. The presence of the Escherichia coli SAT1 gene within C. albicans allows acetylation of the drug rendering it nontoxic and permitting the strain to grow in the presence of streptothricin at a concentration of 200 micrograms per milliliter. Expression of the SAT1 gene in C. albicans is made possible by engineering the gene so that its DNA sequence is altered to conform to the genetic code of this organism and by providing a CaACT1 promoter (Morschhauser et al. (1998) Mol. Gen. Genet. 257:412-420) and a CaPCK1 terminator sequence (Leuker et al. (1997) Gene 192: 235-40). This genetically modified marker is referred to as CaSAT1 which is the subject of a copending United States nonprovisional application, published under the publication no. US20010031724, which is incorporated herein by reference in its entirety. […]

CaERG11 GRACE strain = experiment: GRACE strain drug resistance/sensitivity by increasing and decreasing target expression; assay type: cell-based, Candida albicans
Excerpt: as §1

CaALG7 GRACE strain = experiment: as above; assay type: cell-based, Candida albicans
Excerpt: as §1

[3] = inhibitory 3-AT concentration, FIG. 6A
[4] = intermediate 3-AT concentration, FIG. 6B

Molecule: Nc1nc[nH]n1 [3-AT, 3-aminotriazole]
- sensitivity of the bar-coded strain heterozygous for the respective drug target versus other heterozygote bar-coded strains [1]: significantly greater sensitivity
- growth of CaHIS3 heterozygote strain [2, 3]: completely inhibit growth
- growth of wild type CaHIS3 strain [2, 3]: completely inhibit growth
- phenotype of CaHIS3 GRACE strain overexpressing CaHIS3 (constitutive tetracycline promoter expression) [2, 3]: resistance
- effect on tetracycline promoter-based overproducing CaHIS3 strain [2, 4]: unable to effect
- effect on wild type CaHIS3 strain [2, 4]: unable to effect
- sensitivity of heterozygous CaHIS3 strain (haploinsufficient phenotype) [2, 4]: enhanced sensitivity
- sensitivity of CaHIS3 GRACE strain minimally expressing CaHIS3 (partial repression, threshold tetracycline) ([2]; intermediate 3-AT concentration): enhanced drug sensitivity relative the heterozygous CaHIS3 strain
- sensitivity of CaHIS3 GRACE strain minimally expressing CaHIS3 (partial repression, threshold tetracycline) ([2]; intermediate 3-AT concentration, listed as 3-aminotriazole): hypersensitivity

Molecule: CCCCNC(=O)n1c(NC(=O)OC)nc2ccccc21 [benomyl]
- sensitivity of the bar-coded strain heterozygous for the respective drug target versus other heterozygote bar-coded strains [1]: significantly greater sensitivity

Molecule: CN(CC[C@H](N)CC(=O)N[C@H]1C=C[C@H](n2ccc(N)nc2=O)O[C@@H]1C(=O)O)C(=N)N [blasticidin]
- sensitivity of C. albicans (C. albicans; concentration not given): sensitive

Molecule: OC(Cn1cncn1)(Cn1cncn1)c1ccc(F)cc1F [fluconazole]
- sensitivity of the bar-coded strain heterozygous for the respective drug target versus other heterozygote bar-coded strains [1]: significantly greater sensitivity
- GRACE strain-specific phenotypes on increasing and decreasing expression of the known drug target (CaERG11 GRACE strain): drug resistance and sensitivity phenotypes

Molecule: streptothricin
- sensitivity of C. albicans (C. albicans; concentration of 200 micrograms per milliliter): sensitive

Molecule: tunicamycin
- sensitivity of the bar-coded strain heterozygous for the respective drug target versus other heterozygote bar-coded strains [1]: significantly greater sensitivity
- GRACE strain-specific phenotypes on increasing and decreasing expression of the known drug target (CaALG7 GRACE strain): drug resistance and sensitivity phenotypes
